From patent US20070082339A1, “Methods and compositions for screening for HDAC inhibitory activity” (priority 2005, published 2007)

System: A549 cells
Experiment: Microarray analysis of gene expression after LAQ824 treatment
Format: cell-based, human
Details: A549, 500 nM vs DMSO
Protocol: The human lung carcinoma cell line A549 is obtained from the American Type Culture Collection (Rockville, Md.) and cultured in F-12K (ATCC, Manassas, Va.), 10% fetal bovine serum, and 1% penicillin/streptomycin (Life Technologies, Inc.). LAQ824 (Novartis) is added directly to the cell medium at a final concentration of 500 nM. Microarray analysis is performed essentially as described previously (Welsh, 2001). Total RNA is prepared from A549 cells treated with LAQ 824 or DMSO for 0.5, 2, 6, 12 and 24 h. Labelled cDNA is prepared and hybridized to Affymetrix U133 oligonucleotide GeneChip® (Affymetrix, Santa Clara, Calif.). The arrays were scanned on an Affymetrix GeneArray scanner and analyzed with GENECHIP Microarray Analysis Suite 5.0 software (MAS5) (Affymetrix). The data (raw data including image files and scanner files (Cel. Files) as well as the MAS5 normalized data are stored in the DEMON Database. The MAS5 normalized data are exported from the database and analyzed using GeneSpring software version 6.1. The genes are filtered for a minimal expression of 100 in at least one condition (the condition being defined as the average the value for the 3 samples corresponding to a given time point and a treatement) The gene expression changes (fold change) are calculated for each time point (t) as follow: (Gene expression level LAQ824 treated—(Average of the 3 replicates) Time (t))/(Gene expression level DMSO treated—(Average of the 3 replicates) Time (t)).
Any fold change <0 indicated a down regulation or reduction of the mRNA production, any fold change >0 indicated an up regulation or increase of mRNA production. Genes are filtered according to the fold change and the statistical significance of the changes (1-way-ANOVA test p<0.05)).

O=C(/C=C/c1ccc(CN(CCO)CCc2c[nH]c3ccccc23)cc1)NO [LAQ824, N-Hydroxy-3-[4-[[(2-hydroxyethyl)[2-(1H-indol-3-yl)-ethyl]-amino]methyl]phenyl]-2E-2-propenamide]
Fold change AMP-activated protein kinase family member 5 (ARK5) 204589_at (2 h): −1.1 fold
Fold change ANP32B acidic (leucine-rich) nuclear phosphoprotein 32 family, member B (SSP29) 201305_x_at (2 h): −1.3 fold
Fold change AVEN apoptosis, caspase activation inhibitor (Aven) 219366_at (2 h): −1.2 fold
Fold change B-cell CLL/lymphoma 3 (BCL3) 204908_s_at (2 h): −1.9 fold
Fold change BAI1-associated protein 2 (BAP2, IRSp53) 205293_x_at (2 h): 1.4 fold
Fold change BAI1-associated protein 3 (BAP3, KIAA0734) 204874_x_at (2 h): 1.0 fold
Fold change BAI1-associated protein 3 (BAP3, KIAA0734) 216356_x_at (2 h): 2.3 fold
Fold change BCL2-associated athanogene 2 (BAG-2) 209406_at (2 h): −1.4 fold
Fold change BCL2-interacting killer (apoptosis-inducing) (BP4, NBK, BIP1) 205780_at (2 h): 2.0 fold
Fold change BCL2-like 1 (BCL2L1) 206665_s_at (2 h): −1.2 fold
Fold change BH3 interacting domain death agonist (BID) 204493_at (2 h): 1.1 fold
Fold change Cyclin A2 (CCN1, CCNA) 203418_at (2 h): −1.3 fold
Fold change Cyclin-dependent kinase inhibitor 2D (p19, inhibits CDK4) (INK4D) 210240_s_at (2 h): 1.9 fold
Fold change DEC1-anti apoptosis (BHLHB2) 201169_s_at (2 h): −3.2 fold
Fold change Diphtheria toxin receptor (heparin-binding epidermal growth factor-like growth factor) (DTR) 203821_at (2 h): 9.8 fold
Fold change Early growth response 1 (TIS8, NGFI-A, KROX-24, ZIF-268) 201694_s_at (2 h): 1.4 fold
Fold change GMCL germ cell-less homolog (Drosophila) (GMCL) 218458_at (2 h): 1.7 fold
Fold change Katanin p80 (WD40-containing) subunit B 1 (KAT) 203163_at (2 h): 1.5 fold
Fold change NACHT, leucine rich repeat and PYD containing 1 (PP1044) 218380_at (2 h): 2.8 fold
Fold change Paternally expressed Gene 10 (PEG10) 212092_at (2 h): 1.1 fold
Fold change Paternally expressed Gene 10 (PEG10) 212094_at (2 h): 1.1 fold
Fold change Protein regulator of cytokinesis 1 (PRC1) 218009_s_at (2 h): −1.2 fold
Fold change SKAP55 protein 216899_s_at (2 h): 1.0 fold
Fold change Secreted frizzled-related protein 1 (FRP, SARP2) 202036_s_at (2 h): 1.1 fold
Fold change Secreted frizzled-related protein 1 (FRP, SARP2) 202037_s_at (2 h): 1.1 fold
Fold change Serine/threonine kinase 6 (AIK) 208079_s_at (2 h): 1.0 fold
Fold change Tribbles homolog 3a (TRIB3) 218145_at (2 h): −1.3 fold
Fold change Tumor necrosis factor receptor superfamily, member 6 (TNFRSF6) 215719_x_at (2 h): −1.3 fold
Fold change Tumor necrosis factor receptor superfamily, member 6 (TNFRSF6) 216252_x_at (2 h): −1.3 fold
Fold change Tumor protein p53 (Li-Fraumeni syndrome) 201746_at (2 h): 1.1 fold
Fold change Tumor protein p53 (Li-Fraumeni syndrome) 211300_s_at (2 h): 1.1 fold
Fold change member of the N-myc downregulated gene family (NDRG4) 209159_s_at (2 h): 1.2 fold
Fold change AMP-activated protein kinase family member 5 (ARK5) 204589_at (6 h): −4.3 fold
Fold change ANP32B acidic (leucine-rich) nuclear phosphoprotein 32 family, member B (SSP29) 201305_x_at (6 h): −1.6 fold
Fold change AVEN apoptosis, caspase activation inhibitor (Aven) 219366_at (6 h): −1.5 fold
Fold change B-cell CLL/lymphoma 3 (BCL3) 204908_s_at (6 h): −10.5 fold
Fold change BAI1-associated protein 2 (BAP2, IRSp53) 205293_x_at (6 h): 6.2 fold
Fold change BAI1-associated protein 3 (BAP3, KIAA0734) 204874_x_at (6 h): 5.1 fold
Fold change BAI1-associated protein 3 (BAP3, KIAA0734) 216356_x_at (6 h): 11.1 fold
Fold change BCL2-associated athanogene 2 (BAG-2) 209406_at (6 h): −2.4 fold
Fold change BCL2-interacting killer (apoptosis-inducing) (BP4, NBK, BIP1) 205780_at (6 h): 6.3 fold
Fold change BCL2-like 1 (BCL2L1) 206665_s_at (6 h): −4.2 fold
Fold change BH3 interacting domain death agonist (BID) 204493_at (6 h): −1.9 fold
Fold change Cyclin A2 (CCN1, CCNA) 203418_at (6 h): −2.3 fold
Fold change Cyclin-dependent kinase inhibitor 2D (p19, inhibits CDK4) (INK4D) 210240_s_at (6 h): 4.9 fold
Fold change DEC1-anti apoptosis (BHLHB2) 201169_s_at (6 h): −4.5 fold
Fold change Diphtheria toxin receptor (heparin-binding epidermal growth factor-like growth factor) (DTR) 203821_at (6 h): 8.5 fold
Fold change Early growth response 1 (TIS8, NGFI-A, KROX-24, ZIF-268) 201694_s_at (6 h): 3.6 fold
Fold change GMCL germ cell-less homolog (Drosophila) (GMCL) 218458_at (6 h): 4.1 fold
Fold change Katanin p80 (WD40-containing) subunit B 1 (KAT) 203163_at (6 h): 2.9 fold
Fold change NACHT, leucine rich repeat and PYD containing 1 (PP1044) 218380_at (6 h): 7.6 fold
Fold change Paternally expressed Gene 10 (PEG10) 212092_at (6 h): 2.0 fold
Fold change Paternally expressed Gene 10 (PEG10) 212094_at (6 h): 1.9 fold
Fold change Protein regulator of cytokinesis 1 (PRC1) 218009_s_at (6 h): −1.9 fold
Fold change SKAP55 protein 216899_s_at (6 h): 1.6 fold
Fold change Secreted frizzled-related protein 1 (FRP, SARP2) 202036_s_at (6 h): 1.6 fold
Fold change Secreted frizzled-related protein 1 (FRP, SARP2) 202037_s_at (6 h): 1.8 fold
Fold change Serine/threonine kinase 6 (AIK) 208079_s_at (6 h): −2.0 fold
Fold change Tribbles homolog 3a (TRIB3) 218145_at (6 h): −4.6 fold
Fold change Tumor necrosis factor receptor superfamily, member 6 (TNFRSF6) 215719_x_at (6 h): −3.2 fold
Fold change Tumor necrosis factor receptor superfamily, member 6 (TNFRSF6) 216252_x_at (6 h): −2.9 fold
Fold change Tumor protein p53 (Li-Fraumeni syndrome) 201746_at (6 h): −1.9 fold
Fold change Tumor protein p53 (Li-Fraumeni syndrome) 211300_s_at (6 h): −1.6 fold
Fold change member of the N-myc downregulated gene family (NDRG4) 209159_s_at (6 h): 2.8 fold
